Values of other authors as cited in patent publication US20170027865A1, “Dry Pharmaceutical Compositions for Topical Delivery of Oral Medications, Nasal Delivery and to Treat Ear Disorders” (CMPD LICENSING LLC, priority 2013, published 2017).

Tests used:
[1] = system: Viridans group streptococci; details: Gram: pos
Enterobacter cloacae = details: Gram: neg
Enterobacter sakazakii = details: Gram: neg
Shigella dysenteriae = details: Gram: neg
Klebsiella pneumoniae = details: Gram: neg
Klebsiella oxytoca = details: Gram: neg
Acinetobacter lwoffii = details: Gram: neg
Legionella pneumophila = details: Legionella pneumophila; Gram: neg
Campylobacter jejuni = details: Gram: neg
Clostridium difficile = details: Gram: anaer
Citrobacter freundii = details: Gram: neg
Serratia marcescens = details: Gram: neg
Francisella tularensis = details: Francisella tularensis; Gram: neg
Chlamydia pneumoniae = details: Gram: n/a
Peptostreptococcus = details: Gram: pos
[2] = system: Staphylococcus aureus (MSSA); details: Gram: pos
Moraxella catarrhalis = details: Gram: neg
Proteus vulgaris = details: Gram: neg
Neisseria gonorrhoeae = details: Gram: neg
Streptococcus pneumoniae = details: Gram: pos
[3] = system: Haemophilus parainfluenzae; details: Gram: neg
Citrobacter diversus = details: Gram: neg
Bordetella pertussis = details: Gram: neg
Corynebacterium jeikeium = details: Gram: pos
[4] = system: Acinetobacter calcoaceticus; details: Gram: neg
Neisseria meningitidis = details: Gram: neg
Shigella sonnei = details: Gram: neg
Haemophilus ducreyi = details: Gram: neg
Mycoplasma pneumoniae = details: Gram: n/a
Pseudomonas aeruginosa = details: Gram: neg
Chlamydia psittaci = details: Chlamydia psittaci; Gram: n/a
Enterococcus faecalis = details: Gram: pos
Enterobacter aerogenes = details: Gram: neg
Enterococcus faecium = details: Gram: pos
Shigella boydii = details: Gram: neg
Yersinia pestis = details: Yersinia pestis; Gram: neg
Streptococcus pyogenes = details: Gram: pos
Escherichia coli = details: Gram: neg
Salmonella typhi = details: Gram: neg
Chlamydia trachomatis = details: Gram: n/a
Rickettsiae = details: Rickettsiae; Gram: neg
Acinetobacter baumannii = details: Gram: neg
Diphtheroids = details: Gram: pos
Providencia stuartii = details: Gram: neg
Haemophilus influenzae = details: Gram: neg
[5] = system: Klebsiella (Calymmatobacterium) granulomatis; details: Gram: neg
Streptococcus agalactiae = details: Gram: pos
Bacteroides fragilis = details: Gram: anaer
Morganella morganii = details: Gram: neg
Clostridium perfringens = details: Clostridium perfringens; Gram: anaer
Shigella flexneri = details: Gram: neg
[6] = system: Methicillin Resistant Staph aureus (MRSA); details: Gram: pos
[7] = system: Corynebacterium urealyticum; details: Gram: pos
Vibrio cholerae = details: Gram: neg
Proteus mirabilis = details: Gram: neg
[8] = system: Staphylococcus epidermidis; details: Gram: pos
Providencia rettgeri = details: Gram: neg
Brucella species = details: Brucella species; Gram: neg
Bartonella bacilliformis = details: Gram: neg
Pseudomonas fluorescens = details: Gram: neg

CO/N=C(\C(=O)N[C@@H]1C(=O)N2C(C(=O)O)=C(CSc3nc(=O)c(=O)[nH]n3C)CS[C@H]12)c1csc(N)n1 [Ceftriaxone, ceftriaxone]
Expected coverage [1]: yes | Expected coverage (Enterobacter cloacae): yes | Expected coverage (Enterobacter sakazakii): yes | Expected coverage (Shigella dysenteriae): yes | Expected coverage (Klebsiella pneumoniae): yes | Expected coverage (Klebsiella oxytoca): yes | Expected coverage (Acinetobacter lwoffii): no | Expected coverage (Legionella pneumophila): no | Expected coverage (Campylobacter jejuni): no | Expected coverage (Clostridium difficile): no | Expected coverage (Citrobacter freundii): yes | Expected coverage (Serratia marcescens): yes | Expected coverage (Francisella tularensis): no | Expected coverage (Chlamydia pneumoniae): no | Expected coverage (Peptostreptococcus): yes | Expected coverage [2]: yes | Expected coverage (Moraxella catarrhalis): yes | Expected coverage (Proteus vulgaris): yes | Expected coverage (Neisseria gonorrhoeae): yes | Expected coverage (Streptococcus pneumoniae): yes | Expected coverage [3]: yes | Expected coverage (Citrobacter diversus): yes | Expected coverage (Bordetella pertussis): no | Expected coverage (Corynebacterium jeikeium): no | Expected coverage [4]: no | Expected coverage (Neisseria meningitidis): yes | Expected coverage (Shigella sonnei): yes | Expected coverage (Haemophilus ducreyi): yes | Expected coverage (Mycoplasma pneumoniae): no | Expected coverage (Pseudomonas aeruginosa): no | Expected coverage (Chlamydia psittaci): no | Expected coverage (Enterococcus faecalis): no | Expected coverage (Enterobacter aerogenes): yes | Expected coverage (Enterococcus faecium): no | Expected coverage (Shigella boydii): yes | Expected coverage (Yersinia pestis): no | Expected coverage (Streptococcus pyogenes): yes | Expected coverage (Escherichia coli): yes | Expected coverage (Salmonella typhi): yes | Expected coverage (Chlamydia trachomatis): no | Expected coverage (Rickettsiae): no | Expected coverage (Acinetobacter baumannii): no | Expected coverage (Diphtheroids): no | Expected coverage (Providencia stuartii): yes | Expected coverage (Haemophilus influenzae): yes | Expected coverage [5]: yes | Expected coverage (Streptococcus agalactiae): yes | Expected coverage (Bacteroides fragilis): yes | Expected coverage (Morganella morganii): yes | Expected coverage (Clostridium perfringens): yes | Expected coverage (Shigella flexneri): yes | Expected coverage [6]: no | Expected coverage [7]: no | Expected coverage (Vibrio cholerae): no | Expected coverage (Proteus mirabilis): yes | Expected coverage [8]: yes | Expected coverage (Providencia rettgeri): yes

C/C(=C\C(=O)OCCCCCCCCC(=O)O)C[C@@H]1OC[C@H](C[C@@H]2O[C@H]2[C@@H](C)[C@H](C)O)[C@@H](O)[C@H]1O [Bactroban]
Expected coverage (Enterobacter cloacae): no | Expected coverage (Enterobacter sakazakii): no | Expected coverage (Shigella dysenteriae): no | Expected coverage (Klebsiella pneumoniae): no | Expected coverage (Klebsiella oxytoca): no | Expected coverage (Acinetobacter lwoffii): no | Expected coverage (Legionella pneumophila): no | Expected coverage (Campylobacter jejuni): no | Expected coverage (Citrobacter freundii): no | Expected coverage (Serratia marcescens): no | Expected coverage (Francisella tularensis): no | Expected coverage [2]: yes | Expected coverage (Moraxella catarrhalis): no | Expected coverage (Proteus vulgaris): no | Expected coverage (Brucella species): no | Expected coverage (Neisseria gonorrhoeae): no | Expected coverage (Citrobacter diversus): no | Expected coverage (Bordetella pertussis): no | Expected coverage (Corynebacterium jeikeium): no | Expected coverage [4]: no | Expected coverage (Neisseria meningitidis): no | Expected coverage (Shigella sonnei): no | Expected coverage (Haemophilus ducreyi): no | Expected coverage (Pseudomonas aeruginosa): no | Expected coverage (Enterobacter aerogenes): no | Expected coverage (Shigella boydii): no | Expected coverage (Yersinia pestis): no | Expected coverage (Streptococcus pyogenes): yes | Expected coverage (Bartonella bacilliformis): no | Expected coverage (Escherichia coli): no | Expected coverage (Salmonella typhi): no | Expected coverage (Rickettsiae): no | Expected coverage (Acinetobacter baumannii): no | Expected coverage (Pseudomonas fluorescens): no | Expected coverage (Providencia stuartii): no | Expected coverage (Haemophilus influenzae): no | Expected coverage [5]: no | Expected coverage (Morganella morganii): no | Expected coverage (Clostridium perfringens): no | Expected coverage (Shigella flexneri): no | Expected coverage [6]: yes | Expected coverage [7]: no | Expected coverage (Vibrio cholerae): no | Expected coverage (Proteus mirabilis): no | Expected coverage (Providencia rettgeri): no

O=C(O)c1cn(C2CC2)c2cc(N3CCNCC3)c(F)cc2c1=O [Ciprofloxacin, ciprofloxacin]
Expected coverage (Shigella dysenteriae): yes | Expected coverage (Klebsiella pneumoniae): yes | Expected coverage (Klebsiella oxytoca): yes | Expected coverage (Legionella pneumophila): yes | Expected coverage (Campylobacter jejuni): yes | Expected coverage (Citrobacter freundii): yes | Expected coverage (Serratia marcescens): yes | Expected coverage (Francisella tularensis): yes | Expected coverage (Chlamydia pneumoniae): yes | Expected coverage (Moraxella catarrhalis): yes | Expected coverage (Proteus vulgaris): yes | Expected coverage (Neisseria gonorrhoeae): yes | Expected coverage [3]: yes | Expected coverage (Citrobacter diversus): yes | Expected coverage (Corynebacterium jeikeium): no | Expected coverage (Neisseria meningitidis): yes | Expected coverage (Shigella sonnei): yes | Expected coverage (Pseudomonas aeruginosa): yes | Expected coverage (Enterobacter aerogenes): yes | Expected coverage (Enterococcus faecium): no | Expected coverage (Shigella boydii): yes | Expected coverage (Yersinia pestis): yes | Expected coverage (Bartonella bacilliformis): yes | Expected coverage (Escherichia coli): yes | Expected coverage (Salmonella typhi): yes | Expected coverage (Rickettsiae): yes | Expected coverage (Pseudomonas fluorescens): yes | Expected coverage (Providencia stuartii): yes | Expected coverage (Haemophilus influenzae): yes | Expected coverage (Bacteroides fragilis): no | Expected coverage (Morganella morganii): yes | Expected coverage (Shigella flexneri): yes | Expected coverage [6]: no | Expected coverage (Vibrio cholerae): yes | Expected coverage (Proteus mirabilis): yes | Expected coverage [8]: yes | Expected coverage (Providencia rettgeri): yes
